Experimental data: patent publication US10076511B2, “Bisamide derivative of dicarboxylic acid as an agent for stimulating tissue regeneration and recovery of diminished tissue function” (TREAMID GmbH, priority 2015, dated 2018)
Marks after values point to notes of the source that are not given here.

How the values were obtained:
Format in all cases: in vivo, rat
[1] = tested on: male Wistar rats; assay: Metabolic syndrome model in rats (cafeteria diet)
From the text: Metabolic syndrome was simulated in male Wistar rats (260-280 g) by keeping animals on a high-fat diet (“cafeteria diet”) for 12 weeks. The “cafeteria diet” was balanced according to Current Protocols in Pharmacology [Current Protocols in Pharmacology (2005) Animal Models of Disease//Contributed by Petter Hedlund, Kenshi Matsumoto, and Karl-Erik Andersson]. The diet contained 25-35% of fats and 25-30% of digestible carbohydrates in addition to the standard diet of rodents. Treamid was administered at a dose of 0.5 mg/kg intragastrically once daily, every day from Week 7 to Week 11 of the diet. Reference drug Metformin was administered at a dose of 200 mg/kg intragastrically according to the same regimen.
The development of pathology and a therapeutic effect of Treamid were estimated by the following parameters: blood biochemical parameters (glucose, cholesterol, triglycerides (TG), HDL, LDL, atherogenicity index), glucose tolerance test, visceral fat weight, total number and percentage of motile sperm forms.
Glucose was determined with an OneNouch Select glucometer (Switzerland).
The levels of triglycerides, TCh and HDL were determined by using a diagnostic kit (Olvex Diagnosticum, Russia).
The level of LDL was determined by the formula 2. LDL=TCh−(HDL+TG/2.2) (1),
The atherogenicity index (AI) was calculated by the formula 3. AI=(TCh−HDL)/HDL (2),
The atherogenicity index was calculated for each animal individually, and then the arithmetic mean value of the group was calculated.
For the analysis of sperm, the animals were anesthetized with intraperitoneal injection of a mixture of Zolletil and Xyla (0.2 ml of Zoletil+0.8 ml Xyla) in a volume of 70 μl/100 g of weight. Epididymis was isolated. The epididymis head was cut off from the tail, weighed, 5 incisions were made (to improve the sperm yield), and placed in a tube containing 10 ml of phosphate buffered saline heated to 37° C. The tube was held at 37° C. for 10 minutes. Then, the tube was shaken on a shaker, 20 μl of the liquid was taken, applied to a glass slide heated to 37° C., and the number of motile sperm cells was assessed under a microscope. The calculation was performed up to 100 sperm cells.
The total number of sperm cells in a test tube with epididymis was calculated as follows: 20 μl of the liquid was taken after shaking and added to a tube containing 400 μl of physiological saline. After shaking the tubes, their contents (20 μl) were taken out and introduced into Goryaev chamber. The number of sperm cells was counted in 100 large squares. The number of sperm cells in the head of epididymis was calculated by the formula: Number of sperm cells=number of sperm cells in 100 large squares of Goryaev chamber*0.525(factor from the calculation of the dilution and the volume of Goryaev chamber)/weight of the epididymis head.

[2] = tested on: Wistar rats; assay: Pair-test of sexual behavior, rats of late reproductive (14 months) and presenile (19 months) age; conditions: 14-month rats
Procedure: (§1) Erectile dysfunction was simulated by using animals of late and senile reproductive age (14-19 months). Suppression of sexual motivation was simulated by using animals of late reproductive age (14 months).
Experiments on studying the effect of Treamid on copulatory activity were carried out on 76 Wistar rats (14 months and 19 months of age). Treamid was administered intragastrically for 14 days at a dose of 5 mg/kg. Reference drug Sildenafil (100 mg, PFIZER PGM, France) was also administered intragastrically, which corresponded to clinical use, at a dose of 3 mg/kg twice a week. The sexual activity was estimated by the pair-test of sexual behavior. For this purpose female rats in the estrus stage caused by a preliminary 4-fold injection of the Synestrel were involved in the experiment. The effectiveness of Treamid was estimated by the following indices: latency until the first mating attempt (LFM), the number of mating attempts (MN), and the number of ejaculations (EN). The obtained data were compared with those of the same animals before the administration of Treamid (the first test) and with the data in the control group (the second test).

[3] = tested on: male Wistar rats; assay: Sexual incentive motivation test, rats of late reproductive age; conditions: 14-month rats
Procedure: as §1
Experiments on studying the effect of Treamid on sexual motivation were carried out on 40 male Wistar rats (14 months of age). A model for a targeted search for novel agents for the therapy of this pathology was used as an experimental model of sexual incentive motivation in rats [Xi Chu, Ekaterina S. Zhavbert, Julia L. Dugina, Irina A. Kheyfets, Svetlana A. Sergeeva, Oleg I. Epstein, Anders Agmo Sindenafil and a compound stimulating endothelial NO synthase modity sexual incentive motivation and copulatory behavior in male wistar and fisher 344//J Sex Med.—2008.—5.—P. 2085-2009]. This model is based on the fact that rats are social animals and seek not only sexual, but also social contacts. The assessment of sexual motivation involves determining the time spent near a sexual stimulus and the score of preference in animals without direct contact with “social” and “sexual” stimuli. The sexual stimulus was a female rat in estrus stage, and the social stimulus was a male rat.

[4] = tested on: male Wistar rats; assay: Pair-test of sexual behavior, seasonal suppression of copulatory activity
Procedure: Seasonal suppression of reproductive activity was simulated by carrying out the experiment in the winter period (end of December). As a background group, intact animals (3 months of age) were tested in June.
The experiments were carried out on 27 male Wistar rats of reproductive age (3 months). Treamid at a dose of 5 mg/kg and reference drug Sildenafil (at a dose of 3 mg/kg) were administered intragastrically […], once daily for 15 days. The sexual activity was estimated by the pair-test of sexual behavior. The test was carried out twice: before administration and one hour after the last administration of Treamid. The rats of the control groups receiving the solvent were tested at the same time as the animals of the experimental groups.
The experiment also comprised the use of female rats in the estrus stage caused by a preliminary 4-fold injection of the Synestrel. The effectiveness of Treamid was estimated by the following indices: latency until the first mating attempt (LFM), the number of mating attempts (MN), and the number of ejaculations (EN). The obtained data were compared with those of the same animals before the administration of the tested compound and with the data of the control group (the second test).

[5] = tested on: male rats; conditions: rat, in vivo
Procedure: The latter was simulated by a single injection of cytostatic drug Paclitaxel (Mitotax, Dr. Reddy's, India) to male rats (3 months of age). The choice of the drug was due to the fact that it is one of the medications that damage the precursors of spermatogenesis—stem cells.
Paclitaxel was administered to the animals of the control and test groups once intravenously at the maximum tolerated dose of 7.6 mg/kg. Treamid was administered to the animals of the experimental groups intragastrically at a dose of 5 mg/kg in the form of a suspension in 2% starch mucus for 15 days a month after the administration of Paclitaxel. The control animals received an equivalent volume of the solvent (2% starch mucus), instead of the test compound.
The colony-stimulating activity of the cells of the microenvironment of spermatogenic tissue (production of humoral regulators of spermatogenesis by Sertoli cells) was determined as follows. The above-described procedure was used to prepare a testis homogenate from which an adherent fraction of cells was isolated. The adherent cells were cultured for 24 hours in complete culture medium at 37° C., 5% CO2 and 100% air humidity. A day later, the supernatant was collected, which was stored at a temperature of […]. The level of humoral factors of spermatogenesis in the supernatant was tested by the test system of CFU-Sp of the testes of intact rats. […]

[6] = Treamid 0.5 mg/kg, Metformin 200 mg/kg intragastrically Week 7-11 of high-fat diet
[7] = high-fat diet for 12 weeks, Treamid 0.5 mg/kg, Metformin 200 mg/kg
[8] = high-fat diet, Treamid 0.5 mg/kg, Metformin 200 mg/kg
[9] = First test, before administration of drugs
[10] = Second test, after 14-day administration course, Treamid 5 mg/kg, Sildenafil 3 mg/kg
[11] = Second test, after administration of the test compound, Treamid 5 mg/kg, Sildenafil 3 mg/kg, 14 days
[12] = first test, before administration
[13] = first test, before administration, winter period
[14] = second test, one hour after last administration, Treamid 5.0 mg/kg, Sildenafil 3 mg/kg intragastrically, 15 days

## CN(C)C(=N)N=C(N)N [Metformin, reference compound]
[1]; 3 weeks after the drug administration, Treamid 0.5 mg/kg, Metformin 200 mg/kg
  Glucose level in the blood of male rats, mmol/L: 6.9 ± 0.3*& mmol/L
[1]; 5 weeks after the drug administration, Treamid 0.5 mg/kg, Metformin 200 mg/kg
  Glucose level in the blood of male rats, mmol/L: 8.0 ± 0.2*& mmol/L
[1]; [6]
  Relative weight of visceral fat, Fat near the intestine: 1.07 ± 0.08 % based on body weight
  Relative weight of visceral fat, Fat near the kidneys: 0.52 ± 0.05& % based on body weight
  Relative weight of visceral fat, Fat near the testes: 0.98 ± 0.12 % based on body weight
  Relative weight of visceral fat, Total fat: 2.57 % based on body weight
[1]; before administration of drugs (Week 6 of diet)
  Glucose level in the blood of male rats: 6.2 ± 0.1 mmol/L
[1]; [7]
  Atherogenicity index: 0.6 ± 0.1&
  HDL, mM/l: 1.8 ± 0& mM/l
  LDL, mM/l: 0.7 ± 0.3& mM/l
  Total cholesterol, mM/l: 2.8 ± 0.3 mM/l
  Triglycerides, mM/l: 0.7 ± 0.1& mM/l
[1]; [8]
  Percentage of motile sperm forms: 24.43 ± 3.99 %
  Total number of sperm cells: 276.6 ± 44.6&
[1]; one week after the drug withdrawal, Treamid 0.5 mg/kg, Metformin 200 mg/kg
  Glucose level in the blood of male rats, mmol/L: 7.8 ± 0.6& mmol/L
[1]; vs. high-fat diet control
  increase of the percentage of motile sperm forms: did not affect
  increase of the total number of sperm cells: 1.8 times

## CCCc1nn(C)c2c(=O)[nH]c(-c3cc(S(=O)(=O)N4CCN(C)CC4)ccc3OCC)nc12 [Sildenafil, reference compound]
[2]; [9]
  EN (the number of ejaculations): 0.00 ± 0.00
  LFM (latency until the first mount): 610.08 ± 88.34
  MN (the number of mounts): 1.58 ± 0.56
[2]; [10]
  EN (the number of ejaculations): 0.00 ± 0.00
  MN (the number of mounts): 6.27 ± 1.27⋄#
[2]; Second test, after 14-day administration course, Treamid 5 mg/kg, Sildenafil 3 mg/kg intragastrically
  LFM (latency until the first mount): 171.09 ± 78.08⋄*
[3]; [11]
  A, sec (time spent in the sexual stimulus zone): 143.18 ± 48.64 s
  PS, s. u. (preference score): 0.41 ± 0.12 s. u.
[3]; Treamid 5 mg/kg, Sildenafil 3 mg/kg
  effect on sexual motivation: had no effect
[3]; [12]
  A, sec (time spent in the sexual stimulus zone): 166.83 ± 26.27 s
  B, sec (time spent in the social stimulus zone): 113.58 ± 22.60 s
  PS, s. u. (preference score): 0.59 ± 0.06 s. u.
[4]; Sildenafil 3 mg/kg
  effect on sexual behavior under seasonal suppression: did not have a significant effect
[4]; [13]
  LFM: 473.00 ± 137.58 s
  the number of ejaculations, %: 0%
  the number of mounts, abs.: 3.33 ± 1.27 abs.
[4]; [14]
  LFM: 308.22 ± 117.73 s
  the number of ejaculations, %: 0%
  the number of mounts, abs.: 5.67 ± 1.76 abs.

## CC(=O)O[C@H]1C(=O)[C@@]2(C)[C@H]([C@H](OC(=O)c3ccccc3)[C@]3(O)C[C@H](OC(=O)[C@H](O)[C@@H](NC(=O)c4ccccc4)c4ccccc4)C(C)=C1C3(C)C)[C@]1(OC(C)=O)CO[C@@H]1C[C@@H]2O [Paclitaxel, reference compound]
[5]
  colony stimulating activity of conditioned media of testis cells, CFU-Sp, per 2 × 10^5 (M; SD, n = 10): 3.0; 0.53* per 2 × 10^5
